Patent publication US11583525B2, “Geranylgeranyltransferase I inhibitor for treatment of a PTEN defective cancer” (H. LEE MOFFITT CANCER CENTER AND RESEARCH INSTITUTE, INC., priority 2017, dated 2023)

How the values were obtained:
IP3R3 [1] = experiment: IP3R3 stability by immunoblotting in NHFs, HeLa and HEK293T cells incubated with GGTi-2418; type: cell-based, human; conditions: HeLa, HEK293T cells, 10-15 μM GGTi-2418, NHFs 30 h then cycloheximide and ATP
Experimental: FIGS. 6A, 6B, 6C, 6D, 6E, 6F, 6G, and 6H that the degradation of IP3R3 is dependent on FBXL2 localization to cell membranes and on the segregase activity of p97. […] Live cell imaging was carried out with an LSM510 confocal microscope using a 63× objective. Scale bars, 10 μm. […] Cells were subsequently harvested at the indicated times for immunoblotting. […] Cells were subsequently harvested for immunoblotting. This experiment was performed once. […] The bracket on the right marks a ladder of bands which, presumably, are ubiquitinated species of IP3R3 that are not degraded when p97 is inhibited. […] Cells were subsequently stimulated with medium containing serum and harvested at the indicated time points for immunoblotting. […] Error bars indicate s.e.m. […] Thus, we propose that, after its FBXL2-mediated ubiquitination, IP3R3 is extracted from cell membranes by the segregase activity of p97 to be degraded by the proteasome. […] 24 h post-transfection, cells were treated with MG132 for 3 h before harvesting for immunoprecipitation and immunoblotting as indicated. This experiment was performed twice. […] Samples were analysed by immunoblotting with the indicated antibodies. […]
Cell culture and transfections. […] All cells grown in culture were periodically monitored for mycoplasma contamination. […]

IP3R3 [2] = experiment: IP3R3 levels in U87 and A549 cells (immunoblotting); type: cell-based, human; conditions: U87 and A549 cells (no or low PTEN); GGTi-2418 for 16 h

Cc1nc[nH]c1CN1CCN(C(=O)N[C@@H](CC(C)C)C(=O)O)[C@@H](Cc2ccccc2)C1=O [GGTi-2418]
IP3R3 stability (IP3R3 [1]): stabilizes IP3R3 | IP3R3 levels (IP3R3 [2]): IP3R3 levels increased
